# According to ChEMBL document CHEMBL3885881, “DrugMatrix”:
# Species: Rattus norvegicus
# Assay: DrugMatrix - Regimen: Daily Repeat
# Assay type: toxicity, organism-based, Sprague-Dawley
# Set-up: regimen Daily Repeat, gender Male, age 6-8 weeks
# Details: in vivo, po, route oral GAVAGE, vehicle .5 % CMC; for ABSOLUTE BASOPHIL / ABSOLUTE EOSINOPHIL / ABSOLUTE LYMPHOCYTE / ABSOLUTE MONOCYTE / ABSOLUTE SEGMENTED NEUTROPHIL / BASOPHIL / EOSINOPHIL / ERYTHROCYTE COUNT / HEMATOCRIT / HEMOGLOBIN / LEUKOCYTE COUNT / LYMPHOCYTE / MEAN CORPUSCULAR HEMOGLOBIN / MEAN CORPUSCULAR HEMOGLOBIN CONCENTRATION / MEAN CORPUSCULAR VOLUME / MONOCYTE / NEUTROPHIL / NUCLEATED RED BLOOD CELLS / PLATELET COUNT: tissue Blood; for ALANINE AMINOTRANSFERASE / ALBUMIN / ALKALINE PHOSPHATASE / ASPARTATE AMINOTRANSFERASE / BLOOD UREA NITROGEN / CARBON DIOXIDE / CHLORIDE / CHOLESTEROL / CREATINE PHOSPHOKINASE / CREATININE / GLUCOSE / LACTATE DEHYDROGENASE / LIPASE / PHOSPHORUS / POTASSIUM / SODIUM / TOTAL BILIRUBIN / TOTAL PROTEIN / URIC ACID: tissue Plasma
# [1] = 0 mg/kg, 72 h, dose level Control, time 3 day
# [2] = 0 mg/kg, 120 h, dose level Control, time 5 day
# [3] = 15 mg/kg, 72 h, dose level Low, time 3 day
compound,measurement,setting,value
COC(=O)c1ccc(O)cc1 [METHYLPARABEN],ABSOLUTE BASOPHIL,[1],0 CELLS/uL
same,ABSOLUTE EOSINOPHIL,[1],0 CELLS/uL
same,ABSOLUTE LYMPHOCYTE,[1],10913.67 CELLS/uL
same,ABSOLUTE MONOCYTE,[1],85.33 CELLS/uL
same,ABSOLUTE SEGMENTED NEUTROPHIL,[1],1401 CELLS/uL
same,BASOPHIL,[1],0%
same,EOSINOPHIL,[1],0%
same,ERYTHROCYTE COUNT,[1],5.57 x10E6/uL
same,HEMATOCRIT,[1],35.58%
same,HEMOGLOBIN,[1],13.8 G/DL
same,LEUKOCYTE COUNT,[1],12.4 x10E3/uL
same,LYMPHOCYTE,[1],88%
same,MEAN CORPUSCULAR HEMOGLOBIN,[1],24.78 pg
same,MEAN CORPUSCULAR HEMOGLOBIN CONCENTRATION,[1],38.82 G/DL
same,MEAN CORPUSCULAR VOLUME,[1],63.88 fL
same,MONOCYTE,[1],0.67%
same,NEUTROPHIL,[1],11.33%
same,NUCLEATED RED BLOOD CELLS,[1],0 /100WBC
same,PLATELET COUNT,[1],1162.33 x10E3/uL
same,ALANINE AMINOTRANSFERASE,[1],53 u/L
same,ALBUMIN,[1],4.17 G/DL
same,ALKALINE PHOSPHATASE,[1],374.5 u/L
same,ASPARTATE AMINOTRANSFERASE,[1],89.5 u/L
same,BLOOD UREA NITROGEN,[1],16.33 mg/dL
same,CARBON DIOXIDE,[1],29.17 mmol/L
same,CHLORIDE,[1],97.67 MEQ/L
same,CHOLESTEROL,[1],77 mg/dL
same,CREATINE PHOSPHOKINASE,[1],464.83 u/L
same,CREATININE,[1],0.14 mg/dL
same,GLUCOSE,[1],164 mg/dL
same,LACTATE DEHYDROGENASE,[1],155.5 u/L
same,LIPASE,[1],9.17 u/L
same,PHOSPHORUS,[1],12.4 mg/dL
same,POTASSIUM,[1],6.91 MEQ/L
same,SODIUM,[1],141.47 MEQ/L
same,TOTAL BILIRUBIN,[1],0.2 mg/dL
same,TOTAL PROTEIN,[1],5.95 G/DL
same,URIC ACID,[1],1.72 mg/dL
same,ABSOLUTE BASOPHIL,[2],0 CELLS/uL
same,ABSOLUTE EOSINOPHIL,[2],20.5 CELLS/uL
same,ABSOLUTE LYMPHOCYTE,[2],13871.67 CELLS/uL
same,ABSOLUTE MONOCYTE,[2],60.5 CELLS/uL
same,ABSOLUTE SEGMENTED NEUTROPHIL,[2],980.67 CELLS/uL
same,BASOPHIL,[2],0%
same,EOSINOPHIL,[2],0.17%
same,ERYTHROCYTE COUNT,[2],5.65 x10E6/uL
same,HEMATOCRIT,[2],35.63%
same,HEMOGLOBIN,[2],14.08 G/DL
same,LEUKOCYTE COUNT,[2],14.93 x10E3/uL
same,LYMPHOCYTE,[2],92.83%
same,MEAN CORPUSCULAR HEMOGLOBIN,[2],24.97 pg
same,MEAN CORPUSCULAR HEMOGLOBIN CONCENTRATION,[2],39.55 G/DL
same,MEAN CORPUSCULAR VOLUME,[2],63.13 fL
same,MONOCYTE,[2],0.33%
same,NEUTROPHIL,[2],6.67%
same,NUCLEATED RED BLOOD CELLS,[2],0 /100WBC
same,PLATELET COUNT,[2],1248.17 x10E3/uL
same,ALANINE AMINOTRANSFERASE,[2],45.17 u/L
same,ALBUMIN,[2],4.27 G/DL
same,ALKALINE PHOSPHATASE,[2],405.67 u/L
same,ASPARTATE AMINOTRANSFERASE,[2],74.17 u/L
same,BLOOD UREA NITROGEN,[2],15.5 mg/dL
same,CARBON DIOXIDE,[2],30.17 mmol/L
same,CHLORIDE,[2],100.67 MEQ/L
same,CHOLESTEROL,[2],57 mg/dL
same,CREATINE PHOSPHOKINASE,[2],239.5 u/L
same,CREATININE,[2],0.17 mg/dL
same,GLUCOSE,[2],165.67 mg/dL
same,LACTATE DEHYDROGENASE,[2],90.5 u/L
same,LIPASE,[2],8.83 u/L
same,PHOSPHORUS,[2],12.32 mg/dL
same,POTASSIUM,[2],7.03 MEQ/L
same,SODIUM,[2],142.65 MEQ/L
same,TOTAL BILIRUBIN,[2],0.18 mg/dL
same,TOTAL PROTEIN,[2],6.03 G/DL
same,URIC ACID,[2],1.98 mg/dL
same,ABSOLUTE BASOPHIL,[3],0 CELLS/uL
same,ABSOLUTE EOSINOPHIL,[3],0 CELLS/uL
same,ABSOLUTE LYMPHOCYTE,[3],13173.33 CELLS/uL
same,ABSOLUTE MONOCYTE,[3],95.67 CELLS/uL
same,ABSOLUTE SEGMENTED NEUTROPHIL,[3],1364.33 CELLS/uL
same,BASOPHIL,[3],0%
same,EOSINOPHIL,[3],0%
same,ERYTHROCYTE COUNT,[3],5.6 x10E6/uL
same,HEMATOCRIT,[3],37.1%
same,HEMOGLOBIN,[3],14.57 G/DL
same,LEUKOCYTE COUNT,[3],14.63 x10E3/uL
same,LYMPHOCYTE,[3],90%
same,MEAN CORPUSCULAR HEMOGLOBIN,[3],26.03 pg
same,MEAN CORPUSCULAR HEMOGLOBIN CONCENTRATION,[3],39.27 G/DL
same,MEAN CORPUSCULAR VOLUME,[3],66.23 fL
same,MONOCYTE,[3],0.67%
same,NEUTROPHIL,[3],9.33%
same,NUCLEATED RED BLOOD CELLS,[3],0.67 /100WBC
same,PLATELET COUNT,[3],1171 x10E3/uL
same,ALANINE AMINOTRANSFERASE,[3],56.67 u/L
same,ALBUMIN,[3],4.2 G/DL
same,ALKALINE PHOSPHATASE,[3],324 u/L
same,ASPARTATE AMINOTRANSFERASE,[3],86 u/L
same,BLOOD UREA NITROGEN,[3],16.33 mg/dL
same,CARBON DIOXIDE,[3],26.67 mmol/L
same,CHLORIDE,[3],98.67 MEQ/L
same,CHOLESTEROL,[3],78 mg/dL
same,CREATINE PHOSPHOKINASE,[3],194 u/L
same,CREATININE,[3],0.14 mg/dL
same,GLUCOSE,[3],149.67 mg/dL
same,LACTATE DEHYDROGENASE,[3],120 u/L
same,LIPASE,[3],9.33 u/L
same,PHOSPHORUS,[3],14.03 mg/dL
same,POTASSIUM,[3],6.83 MEQ/L
same,SODIUM,[3],143.63 MEQ/L
same,TOTAL BILIRUBIN,[3],0.23 mg/dL
same,TOTAL PROTEIN,[3],5.9 G/DL
same,URIC ACID,[3],1.83 mg/dL
